Data reported in PMC8836234, “Salicylic Acid Is Required for Broad-Spectrum Disease Resistance in Rice” (International Journal of Molecular Sciences, 2022).

T1: OsSAH2 (Oryza sativa, UniProt B9FC47)
T1 construct: gene Os04g0581000; recombinant from E. coli BL21 (DE3), modified pGEX vector (GST purification), 3 x Myc at C-terminus; wild type has Y127, M282, A285; gene on chromosome 4, tail-to-tail with OsSAH3
T1 sequence (B9FC47 1-340): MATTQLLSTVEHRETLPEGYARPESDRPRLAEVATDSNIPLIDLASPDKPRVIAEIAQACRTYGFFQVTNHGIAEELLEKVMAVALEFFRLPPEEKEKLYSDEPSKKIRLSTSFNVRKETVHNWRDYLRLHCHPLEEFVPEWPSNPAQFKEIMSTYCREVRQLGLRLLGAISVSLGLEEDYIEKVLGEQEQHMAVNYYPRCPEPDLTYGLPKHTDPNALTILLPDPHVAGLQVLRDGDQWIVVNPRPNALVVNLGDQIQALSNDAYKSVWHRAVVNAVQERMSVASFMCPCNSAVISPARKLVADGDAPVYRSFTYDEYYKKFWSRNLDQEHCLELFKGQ

T2: OsSAH4 (Oryza sativa, UniProt Q8W2X5)
T2 construct: gene F3H-2; recombinant from E. coli BL21 (DE3), modified pGEX vector (GST purification), 3 x Myc at C-terminus
T2 sequence (Q8W2X5 1-342): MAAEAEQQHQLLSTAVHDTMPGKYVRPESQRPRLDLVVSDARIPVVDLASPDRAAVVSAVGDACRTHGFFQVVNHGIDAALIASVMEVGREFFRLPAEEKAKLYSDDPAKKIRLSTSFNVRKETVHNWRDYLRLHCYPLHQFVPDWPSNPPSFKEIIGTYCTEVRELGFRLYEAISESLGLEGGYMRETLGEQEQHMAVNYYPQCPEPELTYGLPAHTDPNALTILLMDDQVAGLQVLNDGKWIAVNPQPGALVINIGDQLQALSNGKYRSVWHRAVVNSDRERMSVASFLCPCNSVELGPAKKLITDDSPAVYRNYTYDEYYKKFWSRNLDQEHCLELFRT

T3: OsSAH3 (Oryza sativa, UniProt Q7XUN0)
T3 construct: gene Os04g0581100; recombinant from E. coli BL21 (DE3), modified pGEX vector (GST purification), 3 x Myc at C-terminus; wild type has F136, R138, I289, P292; gene on chromosome 4, tail-to-tail with OsSAH2
T3 sequence (Q7XUN0 1-352): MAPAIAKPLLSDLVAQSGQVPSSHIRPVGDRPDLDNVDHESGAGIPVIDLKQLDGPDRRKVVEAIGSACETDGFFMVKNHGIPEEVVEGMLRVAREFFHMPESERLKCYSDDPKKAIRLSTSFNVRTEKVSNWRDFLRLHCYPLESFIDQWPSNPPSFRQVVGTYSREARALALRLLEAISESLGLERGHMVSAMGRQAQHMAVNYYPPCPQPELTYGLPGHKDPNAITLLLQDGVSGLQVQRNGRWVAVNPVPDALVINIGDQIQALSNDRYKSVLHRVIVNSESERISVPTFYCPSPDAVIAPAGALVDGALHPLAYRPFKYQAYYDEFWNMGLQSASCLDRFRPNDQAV

T4: OsSAH2 (Oryza sativa, UniProt B9FC47, Y127F)
T4 construct: gene Os04g0581000; recombinant from E. coli BL21 (DE3), modified pGEX vector (GST purification), 3 x Myc at C-terminus; wild type has Y127, M282, A285; gene on chromosome 4, tail-to-tail with OsSAH3
T4 sequence (B9FC47 1-340 Y127F): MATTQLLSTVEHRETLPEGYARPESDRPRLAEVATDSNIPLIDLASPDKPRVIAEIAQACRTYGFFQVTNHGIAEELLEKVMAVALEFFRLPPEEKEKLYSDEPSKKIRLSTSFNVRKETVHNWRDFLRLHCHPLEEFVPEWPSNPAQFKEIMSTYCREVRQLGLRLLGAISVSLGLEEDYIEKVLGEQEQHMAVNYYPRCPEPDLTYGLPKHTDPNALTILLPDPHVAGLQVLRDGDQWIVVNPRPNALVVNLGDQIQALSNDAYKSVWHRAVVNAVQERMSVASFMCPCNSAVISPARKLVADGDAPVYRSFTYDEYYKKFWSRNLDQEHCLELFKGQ

T5: DMR6 (Arabidopsis thaliana, UniProt Q9FLV0)
T5 construct: recombinant from E. coli BL21 (DE3), modified pGEX vector (GST purification), 3 x Myc at C-terminus; wild type has Y126, A283
T5 sequence (Q9FLV0 1-341): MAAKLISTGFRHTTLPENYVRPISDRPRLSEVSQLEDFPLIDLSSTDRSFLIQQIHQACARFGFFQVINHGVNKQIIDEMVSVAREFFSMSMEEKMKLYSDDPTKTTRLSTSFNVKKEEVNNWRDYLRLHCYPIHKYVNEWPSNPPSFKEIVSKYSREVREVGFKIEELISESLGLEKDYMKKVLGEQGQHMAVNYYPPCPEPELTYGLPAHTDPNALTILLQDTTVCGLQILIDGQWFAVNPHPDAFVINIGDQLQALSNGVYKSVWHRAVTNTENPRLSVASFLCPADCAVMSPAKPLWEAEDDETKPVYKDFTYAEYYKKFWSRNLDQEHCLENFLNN

T6: OsSAH1 (Oryza sativa, UniProt Q10SI2)
T6 construct: gene Os03g0122300; recombinant from E. coli BL21 (DE3), modified pGEX vector (GST purification), 3 x Myc at C-terminus
T6 sequence (Q10SI2 1-342): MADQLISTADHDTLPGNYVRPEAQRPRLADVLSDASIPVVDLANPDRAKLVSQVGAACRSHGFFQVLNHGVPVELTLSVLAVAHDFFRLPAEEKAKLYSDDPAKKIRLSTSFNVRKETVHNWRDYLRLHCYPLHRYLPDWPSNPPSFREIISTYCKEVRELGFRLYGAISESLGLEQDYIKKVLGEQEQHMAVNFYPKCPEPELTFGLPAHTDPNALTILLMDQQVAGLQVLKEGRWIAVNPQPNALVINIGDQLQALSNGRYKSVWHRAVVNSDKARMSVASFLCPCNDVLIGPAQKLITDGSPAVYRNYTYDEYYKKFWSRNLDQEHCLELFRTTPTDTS


Legend:
OsSAH2 [1] = biological target: T1, OsSAH2; test: LC-MS/MS of […],5-DHBA formation, substrate inhibition fit; assay type: biochemical; conditions: substrate inhibition constant, second site; 5-hydroxylation (2,5-DHBA product); 1 mM 2-oxoglutarate, 0.4 mM FeSO4, phosphate pH 6.8, 40 °C
OsSAH4 = biological target: T2, OsSAH4; test: as above; assay type: biochemical; conditions: substrate inhibition constant, second site; 5-hydroxylation (2,5-DHBA product); 1 mM 2-oxoglutarate, 0.4 mM FeSO4, phosphate pH 6.8, 40 °C
OsSAH3 = biological target: T3, OsSAH3; test: as above; assay type: biochemical; conditions: substrate inhibition constant, second site; 5-hydroxylation (2,5-DHBA product); 1 mM 2-oxoglutarate, 0.4 mM FeSO4, phosphate pH 6.8, 40 °C
OsSAH2 [2] = biological target: T4, OsSAH2; test: LC-MS/MS product formation relative to wild type; assay type: biochemical; conditions: 2-oxoglutarate, FeSO4, phosphate pH 6.8, 40 °C; 2,3- and 2,5-DHBA products
DMR6 = biological target: T5, DMR6; test: LC-MS/MS product formation relative to wild type; assay type: biochemical; conditions: 2-oxoglutarate, FeSO4, phosphate pH 6.8, 40 °C; 2,3- and 2,5-DHBA products
OsSAH1 = biological target: T6, OsSAH1; test: LC-MS/MS of […],5-DHBA formation, substrate inhibition fit; assay type: biochemical; conditions: substrate inhibition constant, second site; 5-hydroxylation (2,5-DHBA product); 1 mM 2-oxoglutarate, 0.4 mM FeSO4, phosphate pH 6.8, 40 °C
purified protein = substrate: O=C(O)c1ccccc1O; test: purified protein; assay type: biochemical, Oryza sativa; conditions: 5-hydroxylation (2,5-DHBA product), 1 mM 2-oxoglutarate, 0.4 mM FeSO4, ascorbate, phosphate pH 6.8, 40 °C

Molecule	Ksi (OsSAH2 [1]) [µM]	Ksi (OsSAH4) [µM]	Ksi (OsSAH3) [µM]	relative enzyme activity (OsSAH2 [2])	LC-MS/MS product formation relative to wild type (DMR6)	Ksi (OsSAH1) [µM]	Km (purified protein) [µM]	kcat (purified protein) [s⁻¹]	kcat/Km (purified protein) [M⁻¹ s⁻¹]
O=C(O)c1ccccc1O [SA, 2-hydroxy benzoic acid]	2.14 ± 1.86	26.52 ± 10.71	365.12 ± 30.58	OsSAH2^Y127F mutant showed a similar level of SA5H activity as that of OsSAH2	The higher activity of DMR6 than that of OsSAH2 was also supported by these parameters	27.13 ± 21.11			
OsSAH3 (Oryza sativa Japonica Group) (protein, recombinant from E. coli BL21 (DE3), modified pGEX vector (GST purification), 3 x Myc at C-terminus; wild type has F136, R138, I289, P292; gene on chromosome 4, tail-to-tail with OsSAH2) MAPAIAKPLLSDLVAQSGQVPSSHIRPVGDRPDLDNVDHESGAGIPVIDLKQLDGPDRRKVVEAIGSACETDGFFMVKNHGIPEEVVEGMLRVAREFFHMPESERLKCYSDDPKKAIRLSTSFNVRTEKVSNWRDFLRLHCYPLESFIDQWPSNPPSFRQVVGTYSREARALALRLLEAISESLGLERGHMVSAMGRQAQHMAVNYYPPCPQPELTYGLPGHKDPNAITLLLQDGVSGLQVQRNGRWVAVNPVPDALVINIGDQIQALSNDRYKSVLHRVIVNSESERISVPTFYCPSPDAVIAPAGALVDGALHPLAYRPFKYQAYYDEFWNMGLQSASCLDRFRPNDQAV							197.08 ± 19.42	0.256 ± 0.0332	1290
